This note sets out measurements from US20210121527A1, “METHODS OF TREATING MINIMAL RESIDUAL CANCER” (ICAHN SCHOOL OF MEDICINE AT MOUNT SINAI, priority 2018, published 2021).

What is called IC50 is the concentration needed to halve the response being measured.

Test [1] addresses T1, Recombinant human EIF2AK3 (PERK) catalytic domain (Homo sapiens, UniProt Q9NZJ5).
T1 construct: catalytic domain (amino acids 536-1116; Cat # PV5107); purchased Invitrogen (Carlsbad, Calif.) PV5107
T1 sequence (Q9NZJ5 536-1116): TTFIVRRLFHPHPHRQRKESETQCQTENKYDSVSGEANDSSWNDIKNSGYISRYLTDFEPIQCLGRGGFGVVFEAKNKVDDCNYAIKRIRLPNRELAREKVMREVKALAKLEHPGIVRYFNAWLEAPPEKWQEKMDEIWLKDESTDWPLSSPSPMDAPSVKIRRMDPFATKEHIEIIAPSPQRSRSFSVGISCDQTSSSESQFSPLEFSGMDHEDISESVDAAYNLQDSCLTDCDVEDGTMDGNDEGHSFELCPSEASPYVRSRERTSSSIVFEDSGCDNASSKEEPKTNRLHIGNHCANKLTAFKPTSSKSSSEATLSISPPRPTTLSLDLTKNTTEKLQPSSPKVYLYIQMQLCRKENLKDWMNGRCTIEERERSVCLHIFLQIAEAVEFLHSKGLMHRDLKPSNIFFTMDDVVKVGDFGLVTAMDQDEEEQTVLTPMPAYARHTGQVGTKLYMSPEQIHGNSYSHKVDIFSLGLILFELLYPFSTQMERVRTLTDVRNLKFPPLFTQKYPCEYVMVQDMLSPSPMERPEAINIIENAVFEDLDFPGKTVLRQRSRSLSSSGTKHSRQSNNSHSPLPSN
Nature of the test: PERK biochemical TR-FRET kinase assay using purified eIF2a as substrate. Conditions: read-out: PERK Enzyme IC50. The protocol: TR-FRET kinase assays were performed in the absence or presence of inhibitors in a reaction buffer consisting of 50 mM HEPES, pH 7.5, 10 mMMgCl2, 1.0 mM EGTA, and 0.01% Brij-35, and 100-200 nM GFP-eIF2a substrate. […] Following the addition of test compound, the reaction was initiated by addition of enzyme and incubated at room temperature for 45 minutes. The reaction was stopped by addition of EDTA to a final concentration of 10 mM and Terbium-labelled phospho-eIF2α antibody was added at a final concentration of 2 nM and incubated for 90 minutes. The resulting fluorescence was monitored in an EnVison® Multilabel reader (PerkinElmer, Waltham, Mass.). TR-FRET ratios and the resulting IC50 values were determined from the fitted inhibition curves. Biochemical specificity profiling was performed at Cerep (Redmond, Wash.) and DiscoverX (San Diego, Calif.).
In general terms: Time-resolved FRET reads energy transfer from a long-lived donor to a nearby acceptor.

Test [2] deals with T2, PERK phosphorylation in MCF10A-HER2 cells (Homo sapiens, UniProt Q9NZJ5).
T2 construct: endogenous in cells; host or cells: MCF10A-HER2 cells in suspension for 24 hours
T2 sequence (Q9NZJ5 30-1116): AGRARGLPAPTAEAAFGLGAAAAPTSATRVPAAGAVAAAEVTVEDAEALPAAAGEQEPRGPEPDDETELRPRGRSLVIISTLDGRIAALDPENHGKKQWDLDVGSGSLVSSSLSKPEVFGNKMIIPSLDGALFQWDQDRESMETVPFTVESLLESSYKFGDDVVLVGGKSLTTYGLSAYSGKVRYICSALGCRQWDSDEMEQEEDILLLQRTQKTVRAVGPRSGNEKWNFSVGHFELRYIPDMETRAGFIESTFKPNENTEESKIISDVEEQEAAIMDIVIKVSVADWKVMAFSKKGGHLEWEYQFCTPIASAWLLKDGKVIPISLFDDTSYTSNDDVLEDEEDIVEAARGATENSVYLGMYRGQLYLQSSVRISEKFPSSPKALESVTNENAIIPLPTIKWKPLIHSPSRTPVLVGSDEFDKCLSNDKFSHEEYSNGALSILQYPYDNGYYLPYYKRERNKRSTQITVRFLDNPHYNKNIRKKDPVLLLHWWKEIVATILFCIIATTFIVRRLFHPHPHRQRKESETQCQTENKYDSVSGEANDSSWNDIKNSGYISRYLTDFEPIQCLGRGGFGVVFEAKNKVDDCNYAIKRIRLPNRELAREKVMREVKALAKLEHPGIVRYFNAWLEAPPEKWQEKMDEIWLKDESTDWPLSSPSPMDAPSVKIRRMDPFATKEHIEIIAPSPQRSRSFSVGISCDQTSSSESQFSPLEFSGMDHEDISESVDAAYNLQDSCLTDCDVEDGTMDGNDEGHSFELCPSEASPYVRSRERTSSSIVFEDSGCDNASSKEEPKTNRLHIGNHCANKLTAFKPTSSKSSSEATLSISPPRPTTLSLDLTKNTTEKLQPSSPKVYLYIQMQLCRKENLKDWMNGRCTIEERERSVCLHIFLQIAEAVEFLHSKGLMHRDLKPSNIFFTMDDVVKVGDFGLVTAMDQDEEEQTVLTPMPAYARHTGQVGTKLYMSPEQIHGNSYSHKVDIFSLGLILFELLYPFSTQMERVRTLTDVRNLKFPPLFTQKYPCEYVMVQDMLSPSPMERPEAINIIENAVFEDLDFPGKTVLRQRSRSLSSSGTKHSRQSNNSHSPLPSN
The test is described as follows: Immunoblot of PERK phosphorylation in stressed cells. It counts as cell-based. Conditions: 2 μM; cells in suspension for 24 hours. In general terms: Immunoblotting shows a protein as a band on a membrane.

The next test has as its target T3, PERK (Homo sapiens, UniProt Q9NZJ5).
T3 construct: endogenous in cells; host or cells: GripTite 293 cells expressing GFP-eIF2a
T3 sequence (Q9NZJ5 30-1116): T2 sequence (Q9NZJ5 30-1116)
The test is described as follows: Cell-based TR-FRET assay of tunicamycin-induced eIF2a phosphorylation in 293 cells. Here is the method: Cell-based TR-FRET assay: Briefly, GripTite™ 293 cells (Invitrogen) expressing GFP-eIF2a were seeded at 10,000 cells per well in 384-well plates and allowed to attach overnight. Cells were pre-treated with test compounds for 1 hour. Tunicamycin (1 μM) was added to induce PERK activity and the plates were incubated at 37° C. for 2 hours. The culture media was removed and the cells were lysed in buffer consisting of 20 mM Tris-HCl, pH 7.5, 150 mM NaCl, 5 mM EDTA, 1% NP-40, 5 mM NaF, Protease inhibitors (Sigma Cat # P8340), Phosphatase inhibitors (Sigma Cat # P2850), and 2 nM Terbium-labelled anti-phospho-eIF2 antibody (Invitrogen Cat # PM43121). Cell lysates were incubated for 2 hours in the dark at room temperature and fluorescence was monitored in an EnVison® Multilabel reader (PerkinElmer, Waltham, Mass.).

As to `CNC(=O)c1nc(-c2ccc(NC(=O)[C@H](O)c3cc(F)cc(F)c3)cc2C)cnc1N` [LY2, 3-amino-6-[4-[[(2R)-2-(3,5-difluorophenyl)-2-hydroxy-acetyl]amino]-2-methyl-phenyl]-N-methyl-pyrazine-2-carboxamide], the concentration for half-maximal inhibition (IC50) was 2 nM in test [1] and 117 nM on PERK. Also, in test [2], the “PERK phosphorylation (immunoblot)” value is reported as “inhibition of PERK phosphorylation”.

Regarding `Cc1cccc(CC(=O)N2CCc3c2ccc(-c2cn(C)c4ncnc(N)c24)c3F)n1` [GSK2656157, reference compound], the IC50 in test [1] amounted to 8 nM; against PERK, 36 nM. Besides, in test [2], the “PERK phosphorylation (immunoblot)” value is “inhibition of PERK phosphorylation”.

`Cc1cc(NC(=O)[C@H](O)c2cccc(F)c2)ccc1-c1cn(C)c2ncnc(N)c12` [LY3, (2R)-N-[4-(4-amino-7-methyl-pyrrolo[2,3-d]pyrimidin-5-yl)-3-methyl-phenyl]-2-(3-fluorophenyl)-2-hydroxy-acetamide]: the results for the half-inhibitory concentration (IC50) (in test [1]; against PERK) were 2 nM and 26 nM, respectively. In addition, the “PERK phosphorylation (immunoblot)” value in test [2] was “inhibition of PERK phosphorylation”.

Consider `Cc1cc(NC(=O)[C@H](O)c2cc(F)cc(F)c2)ccc1-c1cnc(N)c(C(=O)NC(C)C)c1` [LY4, 2-amino-5-[4-[[(2R)-2-(3,5-difluorophenyl)-2-hydroxy-acetyl]amino]-2-methyl-phenyl]-N-isopropyl-pyridine-3-carboxamide], for which the half-maximal inhibitory concentration (IC50) in test [1] is 2 nM; against PERK it was 54 nM. Further, in test [2], the “PERK phosphorylation (immunoblot)” value is recorded as “inhibition of PERK phosphorylation”.
